In US10227373B2 (priority 2014, dated 2019):
Where “and” joins values, the source holds several entries; their conditions need not be identical. Identical values can stand only once. Like-named read-outs stand apart in the source and are kept apart here. Marks after values point to notes of the source that are not given here.

Legend:
Dengue [1] = tested on: Dengue
Vaccinia [2] = tested on: Vaccinia
[3] = target: S-adenosylhomocysteine hydrolase (SAHase) (Oryctolagus cuniculus, UniProt A0A5F9DS62); assay: SAHase inhibition (release of free homocysteine); type: biochemical; conditions: SAHase from rabbit erythrocytes; read-out: IC50 versus SAHase
Ebola virus [4] = tested on: Ebola virus
Ebola virus [5] = assay: microbe, parasite or virus in culture; conditions: Zaire ebolavirus, read-out: EC50 (IC50)
in vitro [6] = conditions: human
measles virus = assay: microbe, parasite or virus in culture; type: cell-based; conditions: Measles morbillivirus, Vero 76, read-out: drug concentration to reduce viral replication (EC50)
HCMV = assay: microbe, parasite or virus in culture; type: cell-based, human cytomegalovirus; conditions: Human betaherpesvirus 5, HFF
Ebola (Zaire) = assay: microbe, parasite or virus in culture; type: cell-based; conditions: Zaire ebolavirus, Vero
Measles = assay: microbe, parasite or virus in culture; type: cell-based; conditions: Measles morbillivirus, Vero 76
in vitro [7] = conditions: human; remark: listed apart in the source
in vitro [8] = conditions: human; remark: listed apart in the source
Dengue [9] = assay: microbe, parasite or virus in culture; type: cell-based
Vaccinia [10] = assay: microbe, parasite or virus in culture; type: cell-based, vaccinia virus
in vitro [11] = conditions: African green monkey
NOV = assay: microbe, parasite or virus in culture; type: cell-based; conditions: Norovirus, HG23
HBV = assay: microbe, parasite or virus in culture; type: cell-based, hepatitis B virus
in vitro [12] = conditions: human; remark: listed apart in the source

S-adenosylhomocysteine hydrolase (SAHase), sequence (A0A5F9DS62 1-428): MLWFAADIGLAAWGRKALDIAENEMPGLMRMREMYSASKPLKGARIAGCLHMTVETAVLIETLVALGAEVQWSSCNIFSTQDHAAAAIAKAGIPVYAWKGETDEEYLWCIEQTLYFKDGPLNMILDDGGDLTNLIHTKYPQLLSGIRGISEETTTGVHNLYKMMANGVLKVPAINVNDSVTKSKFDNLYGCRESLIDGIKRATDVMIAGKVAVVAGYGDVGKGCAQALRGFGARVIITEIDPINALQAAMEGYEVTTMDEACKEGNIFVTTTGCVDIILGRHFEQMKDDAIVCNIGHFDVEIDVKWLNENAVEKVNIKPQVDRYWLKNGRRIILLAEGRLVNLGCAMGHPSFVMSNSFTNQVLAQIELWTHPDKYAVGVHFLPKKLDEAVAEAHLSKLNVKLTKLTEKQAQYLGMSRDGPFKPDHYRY

Q: Which “SI (CC50/EC50)” value (Rift Valley Fever) does the source give for `Nc1ncc(Br)c2c1ncn2[C@@H]1C[C@H](CO)[C@@H](O)[C@H]1O` [3-Bromo-3-deazaaristeromycin] here?
A: 5

Q: And the EC50 (Flu A (H1N1))?
A: > 290 µM

Q: And the “SI (CC50/EC50)” value (Flu A (H1N1))?
A: 0

Q: What about the EC50 (Flu A (H5N1)) of the same compound?
A: 1.14 µM

Q: What about the “SI (CC50/EC50)” value (Flu A (H5N1)) of the same compound?
A: >260

Q: And the “SI (CC50/EC50)” value (Dengue [1])?
A: 2

Q: What about the “SI (CC50/EC50)” value (Vaccinia [2]) of the same compound?
A: >1.3

Q: And the EC50 (Flu A (H3N2))?
A: > 290 µM

Q: What about the “SI (CC50/EC50)” value (Flu A (H3N2)) of the same compound?
A: 0

Q: What about the CC50 (MDCK cells) of the same compound?
A: > 290 µM

Q: What about the EC50 (Influenza B) of the same compound?
A: 0.84 µM

Q: What about the “SI (CC50/EC50)” value (Influenza B) of the same compound?
A: >340

Q: What about the “SI (CC50/EC50)” value (Tacaribe) of the same compound?
A: 7.9

Q: With `Nc1ncc(Br)c2c1ncn2[C@@H]1C=C(CO)[C@@H](O)[C@H]1O` [3-Bromo-3-deazaneplanocin] as the compound, how does the CC50 (Akata cells) read?
A: 0.13^b

Q: And the “SI (CC50/EC50)” value (Junin)?
A: 160

Q: And the “SI (CC50/EC50)” value (Rift Valley Fever)?
A: 250

Q: And the IC50 [3]?
A: 0.0027 µM

Q: And the CC50 (CRFK cells)?
A: 94^b

Q: What about the “SI (CC50/EC50)” value (Pichinde) of the same compound?
A: 24

Q: And the “SI (CC50/EC50)” value (Punta Toro)?
A: 140

Q: And the EC50 (Flu A (H1N1))?
A: < 0.094 µM

Q: What about the “SI (CC50/EC50)” value (Flu A (H1N1)) of the same compound?
A: >2345

Q: What about the EC50 (Flu A (H5N1)) of the same compound?
A: 0.94 µM

Q: What about the “SI (CC50/EC50)” value (Flu A (H5N1)) of the same compound?
A: >310

Q: And the “SI (CC50/EC50)” value (Epstein Barr)?
A: <4.3

Q: And the “SI (CC50/EC50)” value (Dengue [1])?
A: 57

Q: What about the CC50/EC50 (Ebola) of the same compound?
A: 3

Q: What about the EC50 (Ebola) of the same compound?
A: 3.3 µM

Q: And the CC50/EC50 (Marburg)?
A: 1100

Q: What about the EC50 (Marburg) of the same compound?
A: 0.009 µM

Q: And the “MCC (minimum concentration causing microscopically detectable alteration of normal cell morphology)” value (Vero cells)?
A: >100^d

Q: And the EC50 (Flu A (H3N2))?
A: 1.55 µM

Q: What about the “SI (CC50/EC50)” value (Flu A (H3N2)) of the same compound?
A: >190

Q: And the EC50 (Influenza B)?
A: > 0.16 µM

Q: What about the “SI (CC50/EC50)” value (Influenza B) of the same compound?
A: <7

Q: What about the “SI (CC50/EC50)” value (Feline herpes) of the same compound?
A: 470

Q: And the “SI (CC50/EC50)” value (Tacaribe)?
A: >2000

Q: With `Nc1nccc2c1ncn2[C@@H]1C[C@@H](CO)[C@H](O)[C@@H]1O` [carbocyclic 3-deazaadenosine, reference compound] as the compound, how does the “EC90 (IC90; concentration inhibiting viral replication by 90%)” value (Ebola virus [4]) read?
A: > 126.5 µM and 240.3 µM

Q: What does the source list for `Nc1nccc2c1ncn2C1=C[C@H](CO)[C@@H](O)[C@H]1O` [“D”-3-Deazaisoneplanocin, D-1′,6′-iso-3-deazaneplanocin]?
A: EC50 (Ebola virus [5]): < 0.32 µM; CC50/EC50 (Ebola virus [4]): >313 µM; EC90 (IC90; concentration inhibiting viral replication by 90%) (Ebola virus [4]): 74.1 µM; CC50 (in vitro [6]): > 100 µM; EC50 (measles virus): < 0.1 µg/mL

Q: Which results are given for `Nc1ncnc2c1ncn2C1=C[C@H](CO)[C@@H](O)[C@H]1O` [“D”-Isoneplanocin, (1R,2S,5R)-3-(6-Amino-9H-purin-9-yl)-5-(hydroxymethyl)cyclopent-3-ene-1,2-diol]?
A: EC50 (HCMV): 0.11 µM; EC90 (HCMV): > 12 µM; EC50 (Ebola (Zaire)): 0.38 µM; EC50 (Measles): < 0.38 µM; CC50 (in vitro [7]): > 100 µM; CC50 (in vitro [8]): > 100 µM; EC50 (Dengue [9]): 1.5 µM; EC50 (Dengue [9]; Dengue virus, Vero 76): 1.1 µM; EC50 (Vaccinia [10]; Orthopoxvirus vaccinia, HFF): 10.1 µM; EC90 (Vaccinia [10]; Orthopoxvirus vaccinia, HFF): > 300 µM; CC50 (in vitro [11]): 1.3 µM; EC50 (NOV): 0.784 µM; EC90 (NOV): 8.88 µM; EC50 (HBV; Hepatitis B virus): 7.2 µM; EC90 (HBV; Hepatitis B virus): 35 µM

Q: What does the source list for `Nc1nccc2c1ncn2C1=C[C@@H](CO)[C@H](O)[C@@H]1O` [“L”-3-Deazaisoneplanocin, L-1′,6′-iso-3-deazaneplanocin]?
A: EC50 (Ebola virus [5]): < 0.32 µM; CC50/EC50 (Ebola virus [4]): >313 µM; EC90 (IC90; concentration inhibiting viral replication by 90%) (Ebola virus [4]): < 0.32 µM; CC50 (in vitro [6]): > 100 µM

Q: What does the source list for `Nc1ncnc2c1ncn2C1=C[C@@H](CO)[C@H](O)[C@@H]1O` [“L”-Isoneplanocin, (1S,2R,5S)-3-(6-Amino-9H-purin-9-yl)-5-(hydroxymethyl)cyclopent-3-ene-1,2-diol]?
A: EC50 (HCMV): 3.7 µM; EC90 (HCMV): 6.86 µM; EC50 (Ebola (Zaire)): 0.76 µM; EC50 (Measles): 0.72 µM; CC50 (in vitro [8]): > 300 µM; EC50 (Dengue [9]): 5.7 µM; EC50 (Dengue [9]; Dengue virus, Vero 76): 6.1 µM; Antiviral activity (Vaccinia [10]): inactive; CC50 (in vitro [11]): 11.4 µM; CC50 (in vitro [12]): > 300 µM; EC50 (NOV): 11 µM; EC90 (NOV): 89 µM; Antiviral activity (HBV): inactive
